Source: patent US20240009223A1, “6-THIO-2'-DEOXYGUANOSINE (6-THIO-DG) RESULTS IN TELOMERASE DEPENDENT TELOMERE DYSFUNCTION AND CELL DEATH IN VARIOUS MODELS OF THERAPY-RESISTANT CANCER CELLS” (The Board of Regents of The University of Texas System, priority 2016, published 2024)

Tests used:
[1] = system: mTOR-S6 signaling axis in 13-456-3-3 xenografts; assay: RPPA of 13-456-3-3 xenografts; format: in vivo, human
Text: Analysis of Gene Expression Microarray Data and Reverse Phase Protein Array (RPPA) Data. The raw data of gene expression microarrays generated from Illumina Chips were normalized, background-corrected and summarized using the R package “lumi”. […] To reduce false positives, the unexpressed probes were removed. The R package “limma” was employed for gene differential expression analysis, followed by multiple test correction by the Benjamini and Hochberg procedure. […] The inventors also conducted GSEA as previously reported. For GSEA, they analyzed gene sets obtained from the Molecular Signatures Database (world-wide-web at broadinstitute.org/gsea/msigdb/). The same differential expression analysis method was applied to RPPA data.

LOX-IMVI BR xenografts = assay: LOX-IMVI BR xenograft tumor volume; format: in vivo, human; settings: LOX-IMVI BR xenografts in mice
Description: Melanoma Xenotransplantation and In vivo Studies. 100,000 melanoma cells were harvested from cell culture and re-suspended in culture medium and Matrigel at a 1:1 ratio. Cells were subcutaneously injected into mice, which were treated with indicated inhibitors when the tumor volume reached 100 mm^3. Mice were sacrificed at the end time point and solid tumors were collected. All animal experiments were performed in accordance with Wistar IACUC protocol 112330 in NOD.[…] 1 Wjl/SzJ mice.

[2] = system: 12 BRAF-mutant human metastatic melanoma cell lines; assay: Long-term cell growth assay, 12 BRAF-mutant melanoma cell lines; format: cell-based; settings: 9-12 days
Description: FIGS. 1A-1B show long-term cell growth assay of 12 non-melanoma cancer cell lines (FIG. 1A) and 12 BRAF-mutant melanoma cell lines (FIG. 1B) that were treated with 6-thio-dG (6dG) or BIBR 1532 (BIBR) at indicated doses for 9 to 12 days.
Given the prevalence of TERT promoter mutations in melanoma and the potency of telomerase-directed 6-thio-dG therapy in inhibiting cell proliferation of telomerase activity-positive lung and colon cancer cells, the efficacy of 6-thio-dG in the BRAF-mutant melanoma subtype was tested. To that end, a panel of 12 BRAF-mutant human metastatic melanoma cell lines were treated with 6-thio-dG and BIBR 1532 for 9-12 days, respectively.

## Nc1nc2c(ncn2[C@H]2C[C@H](O)[C@@H](CO)O2)c(=S)[nH]1 [6-thio-dG, 6-thio-2′-deoxyguanosine]
[1]
  mTOR-S6 signaling axis (RPPA): down-regulated
LOX-IMVI BR xenografts
  in vivo growth of xenografts: significantly impaired the in vivo growth
[2]
  anti-proliferative effect: anti-proliferative effect
